Where a name gives a salt, the structure may show the parent alone.
Experiment: Water uptake on exposure to air (Karl Fisher water content)
Type: physicochemical
Conditions: recrystallized sodium salt 1(b), exposed to air at room temperature for 1 week; 2.9% before exposure; said to indicate fairly high hydroscopic nature

water content on Karl Fisher after exposure to air: 22.9%
Structure (SMILES): COc1ccc(C2(C#N)CCC(C(=O)O)CC2)cc1OC1CCCC1 (stereo not drawn) [Example 1, cis-4-cyano-4-[3-(cyclopentyloxy)-4-methoxyphenyl]cyclohexane-1-carboxylic acid sodium salt]

From patent publication US20030013905A1, “Salts of cis-4-cyano-4[3(cyclopentyloxy)-4-methoxyphenyl]cyclohexane-1-carboxylic acid” (priority 2002, published 2003)
